Test results as given in patent publication US20080201790A1, “Method and product for regulating cell responsiveness to external signals” (priority 1993, published 2008).

What was measured:
C-Raf = assay: Raf activation assay in L929 cells, C-Raf; format: cell-based, murine
JNK = JNK solid state kinase assay (GST-Jun) in L929 cells; format: cell-based, murine
Procedure: In panel A cells were treated for 10 minutes with the indicated concentration of TNFα. JNK activation was measured using a solid phase kinase assay resulting in phosphorylation of GST-Jun. In […] the time course of MAPK activation is shown. MAPK was isolated from cell lysates on DEAE sephacel columns and MAPK activation was measured by phosphorylation of the EGFR peptide substrate. Panel C depicts the concentration curve of MAPK activation by TNFα. Cells were treated with the indicated concentration of TNFα and MAPK was assayed.
Cell lines and culture. L929 cells (ATCC CCL1 were maintained in Dulbecco's modified Eagle's medium with 5% newborn calf serum and 5% bovine calf serum (BCS) supplemented with 100 ug/ml streptomycin and 100 U/ml penicillin. The cells were grown in 10 cm dishes at 37° C. in 7.5% CO2. Cells were made quiescent where indicated by incubation in Dulbecco's modified Eagle's medium and 0.1% bovine serum albumin for 24 h. Recombinant murine TNFα and recombinant human bFGF (147aa) were from R&D Systems, Minneapolis, Minn. Cells were pretreated where indicated with the MEK-1 inhibitor PD#098059 (Parke-Davis Pharmaceutical Corp. Ann Arbor, Mich.) for 1 h at 37° C. Cells were stimulated by incubation with the indicated cytokine or growth factor for various times at 37° C. Stimulation was stopped by rinsing the plates twice with ice cold phosphate buffered saline (PBS) and lysing the cells in the appropriate lysis buffer. Cells were scraped from the plates and nuclei were pelleted for 10 min at 14,000 RPM in a microcentrifuge. JNK assay. JNK activity was measured using a solid state kinase assay in which glutathione S-transferase-c-Jun (1-79) (GST-JUN) cound to glutathione-Sepharose 4B beads was used to affinity purify JNK and then JNK activity was measured in an in vitro kinase assay using the sepharose bound GST-Jun as a substrate (Hibi, M., et al. (1993) Genes & Development 7:2135-2148). Stimulated or unstimulated cells were lysed in 0.5% Nonidet P-40, 20 mM HEPES pH 7.2, 100 mM NaCl, 2 mM dithiothreitol, 1 mM EDTA, 1.0 mM phenylmethylsulfonylfluoride, 1 μg/ml aprotinin and the nuclei pelleted. Lysates were normalized for protein content. JNK was affinity purified from 50-100 μg of cell lysate by the addition of 10 ul of GST-Jun sepharose slurry (2 μg GST-Jun). Binding to GST-Jun efficiently isolates the two major forms of JNK (p45 and p55) and under the conditions used JNK isolation was linear for 10-250 μg of cell lysate. The lysates were rotated at 4° C. for 1-3 h. Beads were washed twice in lysis buffer and then twice in PAN (10 mM PIPES, pH 7.0, 100 mM NaCl, 21 μg/ml aprotinin). Kinase reactions were carried out at 30° C. for 15 min in 20 mM Hepes pH 7.2, 20 mM β-glycerophosphate, 10 mM p-nitrophenyl phosphate, 10 mM MgCl2, 1 mM dithiothreitol, 50 μm sodium vanadate, 10 μCi γ^32P-ATP 4300 Ci/mmole. The kinase reaction was linear from 0-30 min. MAPK Assay MAPK activity was measured exactly as described previously (Gardner, A. M., et al. (1994) Meth. Enzymol. 238:258-270) with the exception that MonoQ FPLC fractionation was replaced by step elution from a DEAE-Sephacel column using 0.5 M NaCl in loading buffer. The eluate was assayed in triplicate using the epidermal growth factor receptor 662-681 peptide (EGFR662-681) as a selective substrate for MAPK activity (Heasley, L. E., et al. (1994) American Journal of Physiology (Renal Fluid Electrolyte Physiol. 36) 267:F366-F373). […] Cells were lysed by scraping in ice cold RIPA buffer (50 mM Tris-HCl, pH 7.2, 150 mM NaCl, 0.1% SDS, 0.5% sodium deoxycholate, 1.0% Triton X-100, 10 mM sodium pyrophosphate, 25 mM β-glycerophosphate, 2 mM sodium vanadate, 2.1 μg/ml aprotinin) and the nuclei were pelletted. […]

With TNFα the “activation of C-Raf (phosphorylation of kinase-inactive MEK-1)” value (C-Raf) was “does not significantly activate either isoform of Raf”, the JNK activation (JNK; 0.1 ng/ml TNFα) was “greater than four-fold” and the “JNK activity relative to basal” value (JNK; 1-2 hr post-stimulation) was “two-fold above basal”. For the same substance, the “concentration giving maximal JNK activation” value (JNK; L929 cells) was 1 ng/mL and the “time of peak JNK activity” value (JNK; L929 cells) was 10 to 15 min.

In the case of “bFGF: recombinant human bFGF (147aa), basic fibroblast growth factor”, the “activation of C-Raf (phosphorylation of kinase-inactive MEK-1)” value (C-Raf) is reported as “activation of both B-Raf and C-Raf”, the “effect on JNK activity” value (JNK; 2.5 ng/ml bFGF) is reported as “little or no effect on JNK activity” and the “effect on TNFα stimulation of JNK” value (JNK; L929 cells) is reported as “did not alter the magnitude of JNK activation in response to TNFα”.
